Assay results reported in patent US4407804A, “Analgesic mixture of nalbuphine and indomethacin” (E. I. Du Pont de Nemours and Company, priority 1982, dated 1983).

System: phenyl-p-benzoquinone induced writhing in mice
Assay: Mouse antiphenylquinone (phenyl-p-benzoquinone induced) writhing test, oral
Conditions: for % mice blocked: 40 min
Description: Male CF1 mice obtained from Charles River Breeding Laboratories, fasted for 16-22 hours and weighing 18-22 g at the time of testing are used throughout. All mice are dosed sequentially by the oral route with solutions of indomethacin and/or of nalbuphine hydrochloride. A dosing volume of 10 ml/kg is used for each sequential solution. […] All doses are coded and the test is performed under a code not known to the observer.
A stock solution of indomethacin is prepared by dissolving dry indomethacin powder with an aqueous vehicle containing 2% by volume of Tween 80®, a pharmacological dispersant manufactured by Fisher Scientific Company and containing 100% polysorbate 80. All dosing solutions are prepared by dilution of the stock solution with the 2% Tween 80® vehicle; the vehicle control is 2% Tween 80®. All solutions are prepared fresh daily.
Stock solutions of nalbuphine HCl are prepared by dissolving dry nalbuphine hydrochloride powder with distilled water. All dosing solutions are prepared by dilution of the stock solution with distilled water; the vehicle control is distilled water.
As indicated above, the standard procedure based upon the prevention of phenyl-p-benzoquinone induced writhing in mice is utilized to detect and quantify the analgetic activity of compositions containing nalbuphine and indomethacin.
Mice, intubated with various doses of nalbuphine hydrochloride, indomethacin, combined doses of nalbuphine hydrochloride and indomethacin,or vehicle, are injected intraperitoneally with a standard challenge dose of phenyl-p-benzoquinone 5 minutes prior to the designated observation period. […] For scoring purposes a "writhe" is indicated by whole body stretching or contraction of the abdomen; mice are observed 10 minutes for the presence or absence of writhing beginning 5 minutes after receiving the phenyl-p-benzoquinone dose. Each mouse is used only once, then discarded. […] This dosage as described herein is referred to as the ED50.
In order to study the interaction between nalbuphine and indomethacin, 5 precise dosage ratios of nalbuphine hydrochloride and indomethacin were selected. Four or five coded doses of each selected combination were studied for analgesic effectiveness at 40 minutes using an experimental design which permits coding and complete randomization of the separate dosage forms tested. Altogether 35 separate dosage forms are used and each form is represented in each experimental session. The experiments are continued by running experimental sessions with an equal number of mice per group being tested until the total number, N, of mice tested per group is 60.

COc1ccc2c(c1)c(CC(=O)O)c(C)n2C(=O)c1ccc(Cl)cc1 [Indomethacin, 1-(p-chlorobenzoyl)-5-methoxy-2-methylindole-3-acetic acid]
% mice blocked (indomethacin 0.398 mg/kg, nalbuphine HCl 0): 18.3%
% mice blocked (indomethacin 0.795 mg/kg, nalbuphine HCl 0): 30.0%
% mice blocked (indomethacin 1.59 mg/kg, nalbuphine HCl 0): 78.3%
% mice blocked (indomethacin 3.18 mg/kg, nalbuphine HCl 0): 85.0%
ED50 at 40 min, Indomethacin (amount of indomethacin in the ED50 dose) (mouse, N=60 mice/dose, indomethacin alone or as component of the fixed-ratio combination): 1.08 mg/kg

Oc1ccc2c3c1O[C@H]1[C@@H](O)CC[C@@]4(O)[C@@H](C2)N(CC2CCC2)CC[C@]314 [Nalbuphine, (-)-17-(cyclobutylmethyl)-4,5α-epoxymorphinan-3,6α,14-triol]
% mice blocked (nalbuphine HCl 5.45 mg/kg, indomethacin 0): 10.0%
% mice blocked (nalbuphine HCl 10.9 mg/kg, indomethacin 0): 13.3%
% mice blocked (nalbuphine HCl 21.8 mg/kg, indomethacin 0): 46.7%
% mice blocked (nalbuphine HCl 43.6 mg/kg, indomethacin 0): 66.7%
% mice blocked (nalbuphine HCl 87.2 mg/kg, indomethacin 0): 66.7%
ED50 at 40 min, Nalbuphine HCl (amount of nalbuphine HCl in the ED50 dose) (mouse, N=60 mice/dose, nalbuphine HCl alone or as component of the fixed-ratio combination): 35.5 mg/kg
